{"source": "patent US7771977B2", "about": "“Alkane polyol dehydrogenase” (National University Corporation Nara Institute of Science …, priority 2006, dated 2010)", "key": {"[1]": {"system": "alkane polyol dehydrogenase (purified enzyme)", "assay_type": "biochemical, Pichia ofunaensis", "details": "purified enzyme; substrate 100 mM; 2 mM NAD+; pH 8.0; 25° C.", "method": "The reaction solutions were prepared using plural substrates with varied concentrations. Each solution contained a substrate, 2 mM NAD^+, and an enzyme, and was allowed to react in a 100 mM potassium phosphate buffer solution (pH 8.0) at 25° C. Then, changes in absorbance (molar absorption coefficient 6,220 M^−1·cm^−1) at 340 nm due to the NADH formation were measured. 1 U is defined as an enzyme amount for catalyzing 1 μmol NADH formation per minute.\nThe alkane polyol dehydrogenase obtained in Example 1 was utilized to measure the enzyme activities in the following manner.\n1 U was defined as the amount of enzyme that catalyzes the formation of 1 μmol of NADH per minute.\nMeasurement was performed in the same manner as in the activity measurements described earlier in 4-1.\nSuch activity was measured by causing a reaction mixture containing 5 mM (R)-1,2-octanediol, 2 mM NAD^+ and enzyme to react in a 100 mM potassium phosphate buffer solution (pH 8.0) at 25° C., then observing the change, due to NADH formation, of absorbance (molecular absorption coefficient 6,220 M^−1 ·cm^−1) at 340 nm. 1 U was defined as the amount of enzyme that catalyzes the formation of 1 μmol of NADH per minute."}, "[2]": {"system": "Pichia ofunaensis AKU4328 cells", "assay": "Glycerol dehydrogenation activity of glycerol-induced Pichia ofunaensis cells", "assay_type": "biochemical", "from_the_text": "Pichia ofunaensis AKU4328 was pre-cultured in medium containing 4 g/L of ammonium chloride, 1 g/L of phosphoric acid 2 hydrogen 1 potassium, 1 g/L of phosphoric acid 1 hydrogen 2 potassium, 0.5 g/L of magnesium sulfate 7 hydrate, 1 g/L of yeast extract, and 1% glucose. Ten hours after the initiation of the main culture in induction medium consisting of a basal medium with 1% glycerol, the cells were harvested. Since the specific activity of glycerol was 3.6 U/mg (protein), it was confirmed that the same protein as the purified enzyme obtained in Example 1 was expressed by 7%.\nIn relation to the measurement of the enzyme activity, a reaction mixture containing a […] ammonium chloride/ammonia buffer (pH 9.0), 100 mM glycerol, 2.0 mM NAD^+ and an enzyme solution was subjected to a reaction at 25° C.; subsequently, the change, due to NADH formation, of absorbance (molecular absorption coefficient 6,220 M^−1 ·cm^−1) at 340 nm was measured. 1 U refers to the amount of enzyme that catalyzes the formation of 1 μmol of NADH per minute. […]\nThe activity at this time was measured by causing a reaction mixture containing a 100 mM ammonium chloride/ammonia buffer (pH 9.0), 100 mM glycerol, 2.0 mM NAD^+ and an enzyme solution to react at 25° C., then observing the change, due to NADH formation, of absorbance (molecular absorption coefficient 6,220 M^−1·cm^−1) at 340 nm. […]"}, "[3]": {"assay": "Enzyme activity of purification fractions with 100 mM glycerol", "assay_type": "biochemical, Pichia ofunaensis", "details": "2 mM NAD+, pH 8.0, 25° C., purification step", "method": "The entire purification process was performed at 4° C., unless otherwise indicated. The cells (20 g wet cell weight) prepared as above in 1-1, were suspended in buffer solution A (100 mM potassium phosphate buffer solution (pH 7.0) and 1 mM dithiothreitol (hereinafter simply referred to as DTT)). The resulting suspension was mixed with 100 ml of glass beads, and disrupted with a bead beater (produced by BioSpec, Bartlesville, USA).\nThe obtained cell extract was allowed to adsorb to a DEAE-cellulose column (diameter 4.0 cm×height 3.5 cm, produced by Wako Pure Chemical Ind. Ltd., Osaka) that was pre-equilibrated with buffer solution A. Thereafter, the gradient of 0-1 M potassium chloride was applied to buffer solution A to elute protein at a flow rate of 1 ml/min.\nThe eluted active fractions were collected, and dialyzed against buffer solution A containing 40% saturated ammonium sulfate. […]\nIn connection with the enzyme activity, a reaction mixture containing 100 mM glycerol, 2 mM NAD^+ and enzyme was allowed to react in a 100 mM potassium phosphate buffer solution (pH 8.0) at 25° C.; subsequently, the change, due to NADH formation, of absorbance (molar absorption coefficient 6,220 M^−1·cm^−1) at 340 nm was measured and analyzed. […]"}}, "data": [{"molecule": "OCC(O)CO", "note": "[Glycerol]", "values": [{"measurement": "Oxidative Activity", "setting": "[1]", "value": 39.1, "unit": "U/mg"}, {"measurement": "specific activity of the cells against glycerol", "setting": "[2]; 1% glycerol induction, 100 mM glycerol, 2.0 mM NAD+, pH 9.0, 25° C.", "value": "3.6 U/mg (protein)"}, {"measurement": "glycerol dehydrogenation activity per 1 kg of wet cell weight", "setting": "[2]; per 1 kg wet cell weight", "value": "1,300,000 U"}]}, {"molecule": "Superdex 200: purified alkane polyol dehydrogenase of Pichia ofunaensis (SEQ ID NO: 1) after Superdex 200 gel filtration (protein, listed as Pichia ofunaensis) MKGLLYYKTGDIRYSEDVEEPEILSSHDVKIRVKFCGICGTDLKEYTYEGGPLFLPKPGSSDKISGLELPLCPGHEFCGVVEEVGESVTRVKPGDRVAVEATTHCSDAVHYGVHDMELCVACKNGSPNCCTHLSFCGLGGASGGFAEKVVYGEEHMLKLPDSIPFDIGALIEPLAVAWHAVECAKFKPGSTALVLGGGPIGLATILALQGHQAGRIVCSEPACIRREYAAKFGAEVFDPSQHDDVIHELKALLPENGGFDASFDCSGVPQTFTTSIEALAPGGMAVNVAIWGDHAIDFGAMCLTYQEKTCTGSMCYTVKDFEEVINALDKGLISISKARLMITGKVNLKDGVELGFKQLIEHKETNIKILVTPDEV", "values": [{"measurement": "Specific Activity", "setting": "[3]", "value": 51, "unit": "U/mg"}]}]}
